Experimental findings from DBAASP are described below.

Among the test systems are Escherichia coli D31; Staphylococcus xylosus; Escherichia coli UB1005; Candida albicans; Escherichia coli C600.
Common to all, as to assay: ≥ marks a high value that may be exact or a test limit, other limits are often not marked, values filed in µg/mL are converted to µM
In assay [1] the test system is Staphylococcus aureus ATCC 33591.
Assay [2] has as its system Escherichia coli ATCC 2592.
Assay [3] concerns Pseudomonas aeruginosa ATCC 10145.
Assay [4] relates to Candida albicans ATCC 10231.
The test system of assay [5] is Cryptococcus neoformans ATCC 32045.
The subject of assay [6] is Streptococcus mutans ATCC 25175.
Assay [7] deals with Staphylococcus aureus ATCC 25923.
In assay [8] the test system is Pseudomonas aeruginosa ATCC 15442.
Assay [9] relates to Escherichia coli ATCC 35218.
Assay [10] has as its system Klebsiella pneumoniae ATCC 700603.
For assay [11], the system named is Bacillus cereus ATCC 14579.
Assay [12] deals with Salmonella enterica subsp. enterica serovar Typhimurium ATCC 14028.
In assay [13] the test system is Staphylococcus aureus ATCC 6538.
For assay [14], the system named is Escherichia coli DH5alpha.
The subject of assay [15] is Pseudomonas aeruginosa ATCC 27853.
The subject of assay [16] is Enterococcus faecalis ATCC 29212.
Assay [17] relates to Candida albicans CGMCC 2.2086.
For assay [18], the system named is Pseudomonas aeruginosa PAO1.
The subject of assay [19] is Candida tropicalis CGMCC 2.1975.
For assay [20], the system named is Salmonella enterica subsp. enterica serovar Choleraesuis CVCC 503.
In assay [21] the test system is Salmonella enterica subsp. enterica serovar Typhimurium C77-31.
Assay [22] has as its system Staphylococcus epidermidis ATCC 12228.
Assay [23] deals with Staphylococcus aureus ATCC 43300.
In assay [24] the test system is Staphylococcus aureus ATCC 29213.
In assay [25] the test system is Candida parapsilosis CGMCC 2.3989.
Assay [26] relates to Candida albicans ATCC 64550.
Assay [27] concerns Escherichia coli ATCC 25922.
The subject of assay [28] is Staphylococcus aureus 209P.

Usually MIC stands for the least concentration at which growth counts as inhibited. Low readings indicate inhibition by little substance, high ones a need for much substance.

Structures are written as SMILES. Values after ≈ are worked out from the molar mass of the structure shown.

Consider `C[C@H](NC(=O)[C@H](CCCCN)NC(=O)[C@H](Cc1ccccc1)NC(=O)[C@H](C)NC(=O)[C@H](CCCCN)NC(=O)[C@H](Cc1ccccc1)NC(=O)[C@H](C)NC(=O)[C@H](CCCCN)NC(=O)[C@H](Cc1ccccc1)NC(=O)[C@H](C)NC(=O)[C@H](CCCCN)NC(=O)[C@H](Cc1ccccc1)NC(=O)[C@H](C)NC(=O)[C@H](CCCCN)NC(=O)[C@H](Cc1ccccc1)NC(=O)[C@H](C)NC(=O)[C@H](CCCCN)NC(=O)[C@H](Cc1ccccc1)NC(=O)[C@H](C)NC(=O)[C@H](CCCCN)NC(=O)[C@H](Cc1ccccc1)NC(=O)[C@H](C)NC(=O)[C@H](CCCCN)NC(=O)[C@H](Cc1ccccc1)NC(=O)[C@H](C)NC(=O)[C@H](CCCCN)NC(=O)[C@@H](N)Cc1ccccc1)C(=O)O` [FKAFKAFKAFKAFKAFKAFKAFKAFKA], for which the minimal inhibitory concentration (MIC) in [1] is 14 µM (≈ 43.8 µg/mL); in [2], 14 µM (≈ 43.8 µg/mL); in assay [3], 6.38 µM (≈ 20 µg/mL); in [4], 113 µM (≈ 354 µg/mL); in assay [5], 28.1 µM (≈ 88 µg/mL).

With `CC(C)C[C@H](NC(=O)[C@H](C)NC(=O)[C@H](CC(N)=O)NC(=O)[C@H](Cc1ccccc1)NC(=O)[C@@H](NC(=O)[C@@H](NC(=O)CN)C(C)C)[C@@H](C)O)C(=O)N[C@@H](CCCCN)C(=O)NCC(=O)N[C@H](C(=O)N[C@@H](C)C(=O)N[C@@H](CCCCN)C(=O)N[C@H](C(=O)N[C@H](C(=O)N[C@@H](C)C(=O)N[C@@H](C)C(=O)N[C@@H](CCC(N)=O)C(=O)N[C@@H](CC(C)C)C(=O)N[C@@H](CC(C)C)C(=O)N[C@@H](CCCCN)C(=O)N[C@H](C(=O)N[C@@H](C)C(=O)N[C@@H](CCCN=C(N)N)C(N)=O)[C@@H](C)O)C(C)C)[C@@H](C)O)C(C)C` [GVTFNALKGVAKTVAAQLLKTAR], the MIC in [6] is at least 100 µM; in assay [7], 16 µM (≈ 37.7 µg/mL); in the assay on Escherichia coli D31, at least 64 µM; in assay [4], above 100 µM; in [8] it was at least 100 µM.

On to `CC[C@H](C)[C@H](N)C(=O)N[C@@H](CC(N)=O)C(=O)N[C@@H](CC(C)C)C(=O)N[C@@H](CCCCN)C(=O)N[C@@H](C)C(=O)N[C@H](C(=O)N[C@@H](C)C(=O)N[C@@H](C)C(=O)N[C@@H](CC(C)C)C(=O)N[C@H](C(=O)N[C@@H](CCCCN)C(=O)N[C@@H](CCCCN)C(=O)N[C@H](C(=O)O)C(C)C)C(C)C)[C@@H](C)CC` [INLKAIAALVKKV], for which the MIC in assay [6] was 23.6 µM (≈ 32.6 µg/mL); in assay [9], 8.52 µM (≈ 11.8 µg/mL); in assay [10], 13.3 µM (≈ 18.4 µg/mL); in assay [11], at least 41.5 µM; in assay [12], 12.2 µM (≈ 16.8 µg/mL); in assay [13], 43.2 µM (≈ 59.7 µg/mL).

Consider `NCCCC[C@H](NC(=O)[C@H](CCCN=C(N)N)NC(=O)[C@H](CCCCN)NC(=O)CNC(=O)[C@H](CCCCN)NC(=O)[C@H](CCCN=C(N)N)NC(=O)[C@@H](N)CCCCN)C(=O)O` [KRKGKRK], for which the MIC (against Staphylococcus xylosus; in assay [14]) was at least 64 µM in each case.

Turning to `CC[C@H](C)[C@H](NC(=O)[C@H](CC(C)C)NC(=O)[C@@H](NC(=O)[C@H](CC(C)C)NC(=O)[C@@H](NC(=O)[C@H](CC(C)C)NC(=O)[C@@H](NC(=O)[C@H](CCCCN)NC(=O)[C@H](CCCN=C(N)N)NC(=O)[C@@H](N)CCCCN)[C@@H](C)CC)[C@@H](C)CC)[C@@H](C)CC)C(=O)N[C@@H](CC(C)C)C(=O)O` [KRKILILILIL], the MIC (against Staphylococcus xylosus; in assay [14]) was at least 64 µM throughout.

Consider `CC[C@H](C)[C@H](NC(=O)[C@H](CC(C)C)NC(=O)[C@@H](NC(=O)[C@H](CCCN=C(N)N)NC(=O)[C@H](CCCCN)NC(=O)[C@H](CCCN=C(N)N)NC(=O)[C@H](CCCCN)NC(=O)[C@H](CCCN=C(N)N)NC(=O)[C@H](CCCCN)NC(=O)[C@H](CCCN=C(N)N)NC(=O)[C@H](CCCCN)NC(=O)[C@H](CC(C)C)NC(=O)[C@@H](NC(=O)[C@@H](N)CC(C)C)[C@@H](C)CC)[C@@H](C)CC)C(=O)O` [LILKRKRKRKRILI], for which the MIC in [15] was 128 µM (≈ 235 µg/mL); in the assay on Staphylococcus xylosus, at least 64 µM; in assay [14], at least 64 µM.

Turning to `CC(C)C[C@H](NC(=O)[C@H](CCCCN)NC(=O)[C@H](CCCCN)NC(=O)[C@H](CC(C)C)NC(=O)[C@H](CCCN=C(N)N)NC(=O)[C@H](CS)NC(=O)[C@H](C)NC(=O)[C@H](CC(C)C)NC(=O)[C@H](CCCCN)NC(=O)[C@H](CCCCN)NC(=O)[C@@H](N)CC(C)C)C(=O)N[C@@H](C)C(=O)N[C@@H](CS)C(=O)N[C@@H](CCCN=C(N)N)C(N)=O` [LKKLACRLKKLACR], the minimal inhibitory concentration (MIC) against Escherichia coli UB1005 was at least 32 µM; in assay [15] it was 32 µM (≈ 52.6 µg/mL); in assay [16] it was above 64 µM; in assay [17], at least 64 µM; in [7] it was above 64 µM; in the assay with Candida albicans it was 45.3 µM (≈ 74.4 µg/mL). Moreover, the MIC in assay [18] is 16 µM (≈ 26.3 µg/mL); in assay [19], 8 µM (≈ 13.1 µg/mL); in assay [20] it was at least 32 µM; in [21], at least 32 µM; in assay [22], above 64 µM; in assay [12], 64 µM (≈ 105 µg/mL). The figures for the minimal inhibitory concentration (MIC) in [23], in [24] and in assay [25] were 64 µM (≈ 105 µg/mL), 64 µM (≈ 105 µg/mL) and at least 64 µM, respectively.

Take `NCCCC[C@H](NC(=O)[C@H](CCCCN)NC(=O)[C@H](CCCN=C(N)N)NC(=O)[C@H](CCCN=C(N)N)NC(=O)[C@H](Cc1ccc(O)cc1)NC(=O)[C@H](Cc1ccc(O)cc1)NC(=O)[C@H](CCCCN)NC(=O)[C@H](CCCN=C(N)N)NC(=O)CNC(=O)[C@@H](N)CCCN=C(N)N)C(=O)O` [RGRKYYRRKK]: the minimum inhibitory concentration (MIC) in assay [26] is at least 100 µM.

`CC(C)[C@H](NC(=O)[C@H](Cc1c[nH]c2ccccc12)NC(=O)[C@H](CCCCN)NC(=O)[C@@H](N)CCCN=C(N)N)C(=O)N[C@@H](Cc1c[nH]c2ccccc12)C(=O)N[C@@H](Cc1c[nH]c2ccccc12)C(=O)N[C@@H](CCCN=C(N)N)C(=O)N[C@@H](CC(N)=O)C(=O)N[C@@H](CCCN=C(N)N)C(N)=O` [RKWVWWRNR]: the MIC in [26] is at least 100 µM; in assay [22], 5.77 µM (≈ 7.99 µg/mL); in assay [24] it was 11.5 µM (≈ 16 µg/mL); in assay [27], 90.1 µM (≈ 125 µg/mL).

In the case of `CC(C)[C@@H]1NC(=O)CNC(=O)[C@H](CCCN=C(N)N)NC(=O)[C@H](C(C)C)NC(=O)[C@H](CCCN=C(N)N)NC(=O)[C@H](C)NC(=O)[C@H](Cc2ccc(O)cc2)NC(=O)[C@H](C(C)C)NC(=O)[C@@H](NC(=O)[C@H](Cc2c[nH]c3ccccc23)NC(=O)[C@@H](N)CCCN=C(N)N)CSSC[C@@H](C(=O)N[C@@H](CCCN=C(N)N)C(=O)O)NC(=O)[C@H](CCCN=C(N)N)NC(=O)[C@H](CCCN=C(N)N)NC(=O)[C@H](Cc2ccc(O)cc2)NC(=O)[C@H](CCCN=C(N)N)NC1=O` [RWCVYARVRGVRYRRCR], the MIC came to 6.25 µM (≈ 14.1 µg/mL) in assay [18], 3.13 µM (≈ 7.05 µg/mL) in the assay with Escherichia coli C600 and 3.13 µM (≈ 7.05 µg/mL) in assay [28].
